Assay results: patent US7704699B2, “Method for the characterization of the three-dimensional structure of proteins employing mass spectrometric analysis and computational feedback modeling” (H-NU OPS, Inc., priority 1993, dated 2010)

Tested on: cytochrome c; horse tuna and yeast
Assay: ES-MS study of non-covalent interactions of crown ethers with three types of cytochrome c (rank order)
Format: binding
Settings: rank among the three crown ethers, all three cytochrome c types
Description: […]; horse tuna and yeast, utilizing the ES probe 50 and method of this invention.
More particularly, the experiments showing binding of crowns to cytochrome c were done by adding 1, 2, and 3 mol ratios to a 70 pmol/μL mixture of the three different cytochrome c's. The solutions were prepared with equal parts of methanol/water with 1% acetic acid. Typical sample conditions were, 95° C., 2 μL/min, 4000 VDC on the syringe, 170 VDC on the capillary tube, and 60 VDC on the skimmer.

Row | relative tightness of binding to cytochrome c | Compound
1 | binding the most tightly | C1CCC2OCCOCCOC3CCCCC3OCCOCCOC2C1 (centres unmarked) [Dicyclohexano-18-Crown-6, dicyclohexano-18-crown-6]
2 | binding the least tightly | c1ccc2c(c1)OCCOCCOc1ccccc1OCCOCCO2 [Dibenzo-18-Crown-6, dibenzo-18-crown-6]
